pIC50: −log10 of the molar value. Values after ≈ are worked out from the molar mass of the structure shown. Read-outs that look alike come from different tables or passages of the source.
Legend:
[1] = test system: susceptible H37Rv M. tuberculosis, strain ATCC 25618; experiment: Mycobacterium tuberculosis susceptibility assay REMA (resazurin microtiter assay); format: cell-based; details: Mycobacterium tuberculosis, 144 h, MTB growth, H37Rv, 6 days at 37° C., Middlebrook 7H9, read-out: REMA MIC
[2] = test system: HepG2 cell line; experiment: in vitro cytotoxicity assay (MTS tetrazolium reduction, cell viability); format: cell-based; details: Homo sapiens, HepG2, 48 h, MTS, read-out: IC50
Method: In an embodiment, the in vitro cytotoxicity assay was carried out as follows. […] The assay was performed in 96 well plates for 48 h at 37° C. and 5% CO2 in incubation medium (low glucose DMEM with Glutamax, 10% FBS, 1% Pen/Strep and DMSO). Cells were exposed to 8 different compound concentrations in successive dilutions (usually, base 2), plus a positive control (a compound in a concentration known to decrease cell viability above 50%) and a negative control (incubation medium). Six replicate wells were assayed for each condition. Compound stock solutions were prepared in DMSO at 20 mM, whenever possible, filter sterilized, aliquoted and stored at −20° C. The maximum compound concentrations tested depend on its solubility in incubation medium, and on the maximum DMSO percentage allowable without loss of cell viability. At the end of the incubation period, tetrazolium reagent was added (CellTiter 96® AQueous Solution from Promega); cells were incubated for another 3 hours in order to promote tetrazolium reduction to formazan by viable cells. The amount of soluble formazan produced was evaluated by 490 nm absorbance reading in a spectrophotometer plate reader.

[3] = physchem; format: physicochemical; details: pH 7.4
Method: The solution was allowed to mix in a rotator for 1 hour at 30 rpm.

[4] = in vitro; format: in vitro ADME; details: human, plasma, pH 7.4
Method: The assay was performed in a multiple-use 96-well dialysis unit (HTD96b dialyzer). […] 120 μl of non-diluted plasma spiked with the compound (1 μM, 1% final DMSO concentration) was added to one chamber and the same volume of phosphate buffer saline pH 7.4 to the other chamber. HTD96b dialyzer was covered with adhesive sealing film and incubated at 37° C. and 100 rpm orbital shaking for 5 hours. […] For sample preparation, an aliquot of the content of each chamber was mixed with the same volume of the blank opposite matrix. In order to define non-specific loss of the compound during this assay, standard solution was created by mixing an aliquot of spiked plasma with blank buffer without dialysis. Samples were diluted 10-fold with 100% acetonitrile with subsequent plasma proteins sedimentation by centrifugation. Supernatants were analysed using a Shimadzu VP HPLC system with a reverse phase column, coupled with a tandem mass spectrometer API 3000 (PE Sciex). The both positive and negative ion modes of the TurbolonSpray ion source were used. […]
The percentage of plasma protein bounded compound and its recovery were calculated using the equations below:
The percentage of plasma protein bounded compound and its recovery were calculated using the values obtained for each compound in the quantification of the 3 samples (in buffer, plasma and standard solution).

[5] = in vitro; format: in vitro ADME; details: human, plasma
Method: The percentage of the test compounds remaining after incubation in plasma and their half-lives (T1/2) were calculated.

Structure (SMILES) | MIC ([1]; Table 1) [µM] | pIC50 ([2]; Table 1, cytotoxicity) | MIC ([1]; Table 2) [µM] | logD [3] | fraction unbound at 5 h, 1 μM [4] | half-life at 1 μM [5] [h] | pIC50 ([2]; Table 2, cytotoxicity)
COc1cccc(-c2ccc3nc(N4CCC(C(=O)O)CC4)ccc3c2)c1 [Compound 22, 1-(6-(3-methoxyphenyl)quinolin-2-yl)piperidine-4-carboxylic acid] | 7.8 to 15.6 (≈ 2.83 to 5.65 µg/mL) | < 4.00 |  |  |  |  | 
CCOC(=O)C1CCN(c2ccc3cc(-c4cccc(O)c4)ccc3n2)CC1 [Compound 26, ethyl 1-(6-(3-hydroxyphenyl)quinolin-2-yl)piperidine-4-carboxylate] | < 7.8 | < 4.00 | < 7.8 | > 4.5 | ≤ 0.01 | > 2 | < 4.00
CCOC(=O)C1CCN(c2ccc3cc(-c4cccc(OC)c4)ccc3n2)CC1 [Compound 30, ethyl 1-(6-(3-methoxyphenyl)quinolin-2-yl)piperidine-4-carboxylate] | 7.8 to 15.6 (≈ 3.05 to 6.09 µg/mL) | < 4.00 |  |  |  |  | 
CCOC(=O)C1CCN(c2ccc3cc(-c4ccc(F)nc4)ccc3n2)CC1 [Compound 35, ethyl 1-(6-(6-fluoropyridin-3-yl)quinolin-2-yl)piperidine-4-carboxylate] | 7.8 to 15.6 (≈ 2.96 to 5.92 µg/mL) | < 4.00 |  |  |  |  | 
CCOC(=O)C1CCN(c2ccc3cc(-c4ccnc(F)c4)ccc3n2)CC1 [Compound 37, ethyl 1-(6-(2-fluoropyridin-4-yl)quinolin-2-yl)piperidine-4-carboxylate] | 7.8 to 15.6 (≈ 2.96 to 5.92 µg/mL) | 4.00 to 4.30 |  |  |  |  | 
CCOC(=O)C1CCN(c2ccc3cc(-c4ccnc(C)c4)ccc3n2)CC1 [Compound 40, ethyl 1-(6-(2-methylpyridin-4-yl)quinolin-2-yl)piperidine-4-carboxylate] | 7.8 to 15.6 (≈ 2.93 to 5.86 µg/mL) | 4.30 to 4.70 |  |  |  |  | 
CCOC(=O)C1CCN(c2ccc3cc(-c4cc(OC)cc(OC)c4)ccc3n2)CC1 [Compound 41, ethyl 1-(6-(3,5-dimethoxyphenyl)quinolin-2-yl)piperidine-4-carboxylate] | 7.8 to 15.6 (≈ 3.28 to 6.56 µg/mL) | 4.00 to 4.30 |  |  |  |  | 
CCOC(=O)C1CCN(c2ccc3cc(-c4ccc5[nH]ccc5c4)ccc3n2)CC1 [Compound 42, ethyl 1-(6-(1H-indol-5-yl)quinolin-2-yl)piperidine-4-carboxylate] | 7.8 to 15.6 (≈ 3.12 to 6.23 µg/mL) | 4.30 to 4.70 |  |  |  |  | 
CCOC(=O)C1CCCN(c2ccc3cc(-c4ccncc4)ccc3n2)C1 (centres unmarked) [Compound 54, ethyl 1-(6-(pyridin-4-yl)quinolin-2-yl)piperidine-3-carboxylate] | 7.8 to 15.6 (≈ 2.82 to 5.64 µg/mL) | < 4.00 |  |  |  |  | 
